This data set is described as follows: First trials dissolving rivaroxaban into Soluplus polymer. It is filed as physicochemical. Conditions: total API/Polymer ratio=0.1.

Structures are written as SMILES.

Regarding `O=C(NC[C@H]1CN(c2ccc(N3CCOCC3=O)cc2)C(=O)O1)c1ccc(Cl)s1` [rivaroxaban], the “maximum amount of rivaroxaban dissolvable into Soluplus” value is recorded as at most 10%.

The values above are taken from US10034883B2, “Mesoporous dosage forms for poorly soluble drugs” (SIEGFRIED AG, priority 2013, dated 2018).
